Measurements: US20200002377A1, “COMPOUNDS USEFUL FOR THE TREATMENT AND/OR CARE OF THE SKIN, HAIR, NAILS AND/OR MUCOUS MEMBRANES” (LUBRIZOL ADVANCED MATERIALS, INC., priority 2016, published 2020)
Residues, ends and D or L forms follow the SMILES beside them. *: point of attachment. Palmitoyl = CCCCCCCCCCCCCCCC(=O)*; NHhexadecyl = CCCCCCCCCCCCCCCCN*; Myristoyl = CCCCCCCCCCCCCC(=O)*; NHHex = CCCCCCN*

Key:
[1] = tested on: Nuclear Factor Kappa B subunit 1 (NFKB1); experiment: Innate immune response gene expression in HEKa, real time PCR array; assay type: cell-based, human; conditions: 50 μg/ml, 24 h
Procedure: HEKa cells (Life Technologies) are seeded at 6.0×10^5 cells/well in 6-well plates and incubated in culture medium Epillfe™ with defined Growth Supplement (EDGS, Life Technologies), at 37° C. in a water-saturated atmosphere of 95% air and 5% CO2. After 24 hours of incubation under these conditions, medium is removed and cells are incubated with 50 μg/ml (w/v) of a peptide of the invention (see Table 16) in fresh culture medium keeping two wells where HEKa cells are incubated with medium only (basal conditions) at 37° C. and 5% CO2.
After 24 h of incubation, the cells are lysed directly in the wells following the protocol described on the RNeasy™ Mini kit (Qiagen) according to the manufacturer's protocol. The lysed cells are homogenized and the RNases are inactivated. The genomic DNA is removed from the samples by using gDNA Eliminator spin columns (Qiagen). Then the samples are passed through special RNA binding columns (Qiagen) and, after several microcentrifugation washes to eliminate contaminants and impurities, the purified RNA is eluted with 50 μl of ultrapure water. Quantification and analysis of purity of RNA samples are performed after RNA elution with a biophotometer (Eppendorf). 1 μg of high-quality RNA is retrotranscribed with iScript™ advanced (BioRad) in a final volume of 20 μl·Complete reaction mix is incubated in a thermal cycler (Eppendorf) at 42° C. for 30 minutes, and the reactions are stopped at 85° C. for 5 minutes. Complementary DNA is amplified by qPCR in a real-time PCR thermocycler (BioRad) using SYBR®Green supermix (BioRad) and a customized plate for use with SYBR®Green (BioRad). SYBR®Green binds to double-stranded DNA molecules and emits fluorescence which is quantified and is proportional to the amount of the product in the PCR reaction. Cycling conditions in BioRad CFX96™ instrument are 95° C. for 3 minutes, followed by 40 cycles of denaturing at 95° C. for 5 seconds, annealing and elongation at 60° C. for 30 seconds. GAPDH (Glyceraldehyde 3-phosphate dehydrogenase), TBP (TATA box binding protein) and HRPT1 (hypoxanthine phosphoribosyltransferase 1) are used as endogenous controls. Fold change relative to the expression of the sample genes and reference genes is calculated using normalized expression (ΔΔ(Ct)) method with default threshold values using CFX Manager Software (BioRad).
Genes analyzed are Chemokine (C-C motif) Ligand 5 (CCL5), Myeloid Differentiation primary response gene 88 (MyD88), Nuclear Factor Kappa B subunit 1 (NFKB1) and interferon Regulatory Factor 3 (IRF3).

[2] = tested on: Staphylococcus epidermidis; experiment: Adherence of Staphylococcus epidermidis in keratinocytes (HaCaT) in competition with S. aureus bioparticles; assay type: cell-based; conditions: 50 μg/ml, 24 h, basal = 0
Procedure: After that treatment, cells are washed with phosphate-buffered saline (PBS, Sigma) and are then incubated with a solution of Staphylococcus epidermidis (ATCC®12228™, Culture Collections) treated with green-fluorescence calcein AM (Life technologic) and Alexa Fluor 594™ Bioparticles Staphylococcus aureus (ThermoFisher) in PBS for 30 minutes at 37° C. and protected from light. At the end of the incubation period, cells are washed with PBS and fixed in 4% (v/v) paraformaldehyde (PFA, Sigma) for 30 minutes. After rinsing with PBS, the nuclei are stained with Hoechst 33342, trihydrochloride trihydrate (ThermoFisher) in PBS for 10 minutes before analysis.
Cellular imaging is performed by fluorescence microscopy using the Operetta® High Content Imaging System (PerkinElmer). From each fluorescence image, Staphylococcus epidermidis is quantified as a number of spots and normalized against the number of keratinocyte nuclei and the total bacteria number (understood as the addition of detected S. epidermidis spots and S. aureus bioparticles). Each value obtained is normalized respect to basal conditions (non-treated keratinocytes). An image is taken in three different fields per well. 12 representative images from each condition are analyzed with Harmony software (PerkinElmer).
The normalized percentage of Staphylococcus epidermidis respect to basal conditions in treated keratinocytes is represented in Table 17.

## Ac-EEMQRH-NH2 [PEP-53, Ac-Glu-Glu-Met-Gln-Arg-His-NH2]
[1]
  NFKB1 fold induction respect to basal conditions: 3.37

## Ac-QEMQRR-NH2 [PEP-52, Ac-Gln-Glu-Met-Gln-Arg-Arg-NH2]
[1]
  NFKB1 fold induction respect to basal conditions: 2.57

## Ac-QEMQRRAD-OH [PEP-32, Ac-Gln-Glu-Met-Gln-Arg-Arg-Ala-Asp-OH]
[1]
  NFKB1 fold induction respect to basal conditions: 2.56
[2]
  S. epidermidis (%), normalized percentage respect to basal conditions: 13.89%

## Ac-EEMQRRGD-NH2 [PEP-16, Ac-Glu-Glu-Met-Gln-Arg-Arg-Gly-Asp-NH2]
[1]
  NFKB1 fold induction respect to basal conditions: 2.47
[2]
  S. epidermidis (%), normalized percentage respect to basal conditions: 51.11%

## Ac-EEMQKR-NH2 [PEP-46, Ac-Glu-Glu-Met-Gln-Lys-Arg-NH2]
[1]
  NFKB1 fold induction respect to basal conditions: 2.03
[2]
  S. epidermidis (%), normalized percentage respect to basal conditions: 3.97%

## Ac-QEMQRRAD-NH2 [PEP-9, Ac-Gln-Glu-Met-Gln-Arg-Arg-Ala-Asp-NH2]
[1]
  NFKB1 fold induction respect to basal conditions: 2.66
[2]
  S. epidermidis (%), normalized percentage respect to basal conditions: 21.36%

## Ac-EEMQRRAE-NH2 [PEP-17, Ac-Glu-Glu-Met-Gln-Arg-Arg-Ala-Glu-NH2]
[1]
  NFKB1 fold induction respect to basal conditions: 2.32
[2]
  S. epidermidis (%), normalized percentage respect to basal conditions: 11.33%

## CCCCCCCCCCCCCC(=O)N[C@@H](CCC(=O)O)C(=O)N[C@@H](CCC(=O)O)C(=O)N[C@@H](CCSC)C(=O)N[C@@H](CCC(N)=O)C(=O)N[C@@H](CCCNC(=N)N)C(=O)N[C@@H](CCCNC(=N)N)C(N)=O [PEP-5, Myr-Glu-Glu-Met-Gln-Arg-Arg-NH2] (Myristoyl-EEMQRR-NH2)
[1]
  NFKB1 fold induction respect to basal conditions: 2.64
[2]
  S. epidermidis (%), normalized percentage respect to basal conditions: 27.52%

## CCCCCCCCCCCCCC(=O)N[C@@H](CCC(=O)O)C(=O)N[C@@H](CCC(=O)O)C(=O)N[C@@H](CCSC)C(=O)N[C@@H](CCC(N)=O)C(=O)N[C@@H](CCCNC(=N)N)C(=O)N[C@@H](CCCNC(=N)N)C(=O)N[C@@H](C)C(=O)N[C@@H](CCC(=O)O)C(N)=O [PEP-29, Myr-Glu-Glu-Met-Gln-Arg-Arg-Ala-Glu-NH2] (Myristoyl-EEMQRRAE-NH2)
[1]
  NFKB1 fold induction respect to basal conditions: 2.72
[2]
  S. epidermidis (%), normalized percentage respect to basal conditions: 33.02%

## CCCCCCCCCCCCCCCC(=O)N[C@@H](CCC(=O)O)C(=O)N[C@@H](CCC(=O)O)C(=O)N[C@@H](CCSC)C(=O)N[C@@H](CCC(N)=O)C(=O)N[C@@H](CCCNC(=N)N)C(=O)N[C@@H](Cc1c[nH]cn1)C(N)=O [PEP-58, Palm-Glu-Glu-Met-Gln-Arg-His-NH2] (Palmitoyl-EEMQRH-NH2)
[1]
  NFKB1 fold induction respect to basal conditions: 1.87

## Ac-EEMDRRAD-NH2 [PEP-13, Ac-Glu-Glu-Met-Asp-Arg-Arg-Ala-Asp-NH2]
[1]
  NFKB1 fold induction respect to basal conditions: 2.60
[2]
  S. epidermidis (%), normalized percentage respect to basal conditions: 21.79%

## Ac-DEMERRA-NH2 [PEP-40, Ac-Asp-Glu-Met-Glu-Arg-Arg-Ala-NH2]
[1]
  NFKB1 fold induction respect to basal conditions: 2.55
[2]
  S. epidermidis (%), normalized percentage respect to basal conditions: 20.56%

## CCCCCCNC(=O)[C@H](CC(=O)O)NC(=O)[C@H](C)NC(=O)[C@H](CCCNC(=N)N)NC(=O)[C@H](CCCNC(=N)N)NC(=O)[C@H](CCC(N)=O)NC(=O)[C@H](CCSC)NC(=O)[C@H](CCC(=O)O)NC(=O)[C@@H](N)CCC(=O)O [PEP-36, H-Glu-Glu-Met-Gln-Arg-Arg-Ala-Asp-NHC6H13] (H-EEMQRRAD-NHHex)
[1]
  NFKB1 fold induction respect to basal conditions: 2.53
[2]
  S. epidermidis (%), normalized percentage respect to basal conditions: 29.93%

## H-EEMQRRAE-NH2 [PEP-26, H-Glu-Glu-Met-Gln-Arg-Arg-Ala-Glu-NH2]
[1]
  NFKB1 fold induction respect to basal conditions: 2.55
[2]
  S. epidermidis (%), normalized percentage respect to basal conditions: 18.10%

## CCCCCCCCCCCCCCCCNC(=O)[C@H](CCCNC(=N)N)NC(=O)[C@H](CCCNC(=N)N)NC(=O)[C@H](CCC(N)=O)NC(=O)[C@H](CCSC)NC(=O)[C@H](CCC(=O)O)NC(=O)[C@H](CCC(=O)O)NC(C)=O [PEP-7, Ac-Glu-Glu-Met-Gln-Arg-Arg-NHC16H33] (Ac-EEMQRR-NHhexadecyl)
[1]
  NFKB1 fold induction respect to basal conditions: 3.09
[2]
  S. epidermidis (%), normalized percentage respect to basal conditions: 11.43%

## Ac-EEMQRHAD-NH2 [PEP-20, Ac-Glu-Glu-Met-Gln-Arg-His-Ala-Asp-NH2]
[1]
  NFKB1 fold induction respect to basal conditions: 2.71
[2]
  S. epidermidis (%), normalized percentage respect to basal conditions: 16.66%

## Ac-EEMQRRSD-NH2 [PEP-15, Ac-Glu-Glu-Met-Gln-Arg-Arg-Ser-Asp-NH2]
[1]
  NFKB1 fold induction respect to basal conditions: 2.57
[2]
  S. epidermidis (%), normalized percentage respect to basal conditions: 15.10%

## Ac-EEMQRRTD-NH2 [PEP-21, Ac-Glu-Glu-Met-Gln-Arg-Arg-Thr-Asp-NH2]
[1]
  NFKB1 fold induction respect to basal conditions: 2.39
[2]
  S. epidermidis (%), normalized percentage respect to basal conditions: 16.21%

## H-Glu-Glu-Met-Gln-Arg-Arg-NHC16H33 (H-EEMQRR-NHhexadecyl) [PEP-67]
[2]
  S. epidermidis (%), normalized percentage respect to basal conditions: 14.91%

## Ac-EEMQRRG-NH2 [PEP-38, Ac-Glu-Glu-Met-Gln-Arg-Arg-Gly-NH2]
[1]
  NFKB1 fold induction respect to basal conditions: 2.40
[2]
  S. epidermidis (%), normalized percentage respect to basal conditions: 49.00%

## Ac-EEMQRRAD-OH [PEP-4, Ac-Glu-Glu-Met-Gln-Arg-Arg-Ala-Asp-OH]
[1]
  NFKB1 fold induction respect to basal conditions: 2.55
[2]
  S. epidermidis (%), normalized percentage respect to basal conditions: 25.36%

## Ac-DEMQRR-NH2 [PEP-51, Ac-Asp-Glu-Met-Gln-Arg-Arg-NH2]
[1]
  NFKB1 fold induction respect to basal conditions: 2.41
[2]
  S. epidermidis (%), normalized percentage respect to basal conditions: 65.15%

## Ac-EEIERR-NH2 [PEP-55, Ac-Glu-Glu-Ile-Glu-Arg-Arg-NH2]
[1]
  NFKB1 fold induction respect to basal conditions: 3.39
[2]
  S. epidermidis (%), normalized percentage respect to basal conditions: 2.41%

## Ac-EDMQRR-NH2 [PEP-49, Ac-Glu-Asp-Met-Gln-Arg-Arg-NH2]
[1]
  NFKB1 fold induction respect to basal conditions: 1.55
[2]
  S. epidermidis (%), normalized percentage respect to basal conditions: 5.86%

## Ac-EEMQRRS-NH2 [PEP-37, Ac-Glu-Glu-Met-Gln-Arg-Arg-Ser-NH2]
[1]
  NFKB1 fold induction respect to basal conditions: 2.88
[2]
  S. epidermidis (%), normalized percentage respect to basal conditions: 7.49%

## CCCCCCCCCCCCCC(=O)N[C@@H](CCC(=O)O)C(=O)N[C@@H](CCC(=O)O)C(=O)N[C@@H](CCSC)C(=O)N[C@@H](CCC(N)=O)C(=O)N[C@@H](CCCNC(=N)N)C(=O)N[C@@H](CCCCN)C(N)=O [PEP-60, Myr-Glu-Glu-Met-Gln-Arg-Lys-NH2] (Myristoyl-EEMQRK-NH2)
[1]
  NFKB1 fold induction respect to basal conditions: 1.26
[2]
  S. epidermidis (%), normalized percentage respect to basal conditions: 24.84%

## Ac-EELQRRAD-NH2 [PEP-10, Ac-Glu-Glu-Leu-Gln-Arg-Arg-Ala-Asp-NH2]
[1]
  NFKB1 fold induction respect to basal conditions: 2.46
[2]
  S. epidermidis (%), normalized percentage respect to basal conditions: 11.54%

## CCCCCCNC(=O)[C@H](CC(=O)O)NC(=O)[C@H](C)NC(=O)[C@H](CCCNC(=N)N)NC(=O)[C@H](CCCNC(=N)N)NC(=O)[C@H](CCC(N)=O)NC(=O)[C@H](CCSC)NC(=O)[C@H](CCC(=O)O)NC(=O)[C@H](CCC(=O)O)NC(C)=O [PEP-34, Ac-Glu-Glu-Met-Gln-Arg-Arg-Ala-Asp-NHC6H13] (Ac-EEMQRRAD-NHHex)
[1]
  NFKB1 fold induction respect to basal conditions: 2.59
[2]
  S. epidermidis (%), normalized percentage respect to basal conditions: 61.59%

## Ac-EEMQRK-OH [PEP-62, Ac-Glu-Glu-Met-Gln-Arg-Lys-OH]
[1]
  NFKB1 fold induction respect to basal conditions: 1.40
[2]
  S. epidermidis (%), normalized percentage respect to basal conditions: 6.78%

## Ac-EEMQRRV-NH2 [PEP-44, Ac-Glu-Glu-Met-Gln-Arg-Arg-Val-NH2]
[1]
  NFKB1 fold induction respect to basal conditions: 1.24

## Ac-NEMQRRA-NH2 [PEP-43, Ac-Asn-Glu-Met-Gln-Arg-Arg-Ala-NH2]
[1]
  NFKB1 fold induction respect to basal conditions: 2.56
[2]
  S. epidermidis (%), normalized percentage respect to basal conditions: 30.17%

## Ac-EEMNRRAD-NH2 [PEP-12, Ac-Glu-Glu-Met-Asn-Arg-Arg-Ala-Asp-NH2]
[1]
  NFKB1 fold induction respect to basal conditions: 2.58
[2]
  S. epidermidis (%), normalized percentage respect to basal conditions: 14.00%

## CCCCCCNC(=O)[C@H](CCCNC(=N)N)NC(=O)[C@H](CCCNC(=N)N)NC(=O)[C@H](CCC(N)=O)NC(=O)[C@H](CCSC)NC(=O)[C@H](CCC(=O)O)NC(=O)[C@H](CCC(=O)O)NC(C)=O [PEP-64, Ac-Glu-Glu-Met-Gln-Arg-Arg-NHC6H13] (Ac-EEMQRR-NHHex)
[1]
  NFKB1 fold induction respect to basal conditions: 1.75

## CCCCCCNC(=O)[C@H](CCCNC(=N)N)NC(=O)[C@H](CCCNC(=N)N)NC(=O)[C@H](CCC(N)=O)NC(=O)[C@H](CCSC)NC(=O)[C@H](CCC(=O)O)NC(=O)[C@@H](N)CCC(=O)O [PEP-65, H-Glu-Glu-Met-Gln-Arg-Arg-NCH6H13] (H-EEMQRR-NHHex)
[1]
  NFKB1 fold induction respect to basal conditions: 2.41

## Ac-EEMQRRAE-OH [PEP-30, Ac-Glu-Glu-Met-Gln-Arg-Arg-Ala-Glu-OH]
[1]
  NFKB1 fold induction respect to basal conditions: 2.53

## Ac-EELQRR-OH [PEP-63, Ac-Glu-Glu-Leu-Gln-Arg-Arg-OH]
[1]
  NFKB1 fold induction respect to basal conditions: 1.50

## Ac-Glu-Glu-Leu-Gln-Arg-Arg-NH2 (Ac-EELQRR-NH2) [PEP-66]
[2]
  S. epidermidis (%), normalized percentage respect to basal conditions: 45.38%

## H-EEMQRRAN-NH2 [PEP-25, H-Glu-Glu-Met-Gln-Arg-Arg-Ala-Asn-NH2]
[1]
  NFKB1 fold induction respect to basal conditions: 2.31
